Data: patent US20070026071A1, “Magnesium salt proton pump inhibitor dosage forms” (QPharma, LLC, priority 2005, published 2007)
Read-outs that look alike come from different tables or passages of the source.

What was measured:
[1] = from commercially marketed dosage forms; cited from earlier work
[2] = 25° C., cited from earlier work
[3] = Phase solubility study in pH 6.8 buffer (simulated intestinal fluid) and purified water; format: physicochemical; settings: for Solubility: Active content equivalent to base in pH 6.8 buffer / Solubility: Active content equivalent to base in purified water: ambient temperature (approx. 22° C.), shaken approx. 30 minutes
Protocol: In this study the solubility of Omeprazole Magnesium Trihydrate and Esomeprazole Magnesium Dihydrate active materials in pH 6.8 buffer and purified water was performed. […] A pH 6.8 buffer is prepared as described under the monograph of Omeprazole Delayed Release capsules for dissolution test in United States Pharmacopoeia. Purified water and pH 6.8 buffer were used at ambient temperature (approx. 22° C.).
Samples of actives and tablet dosage form powders were used in the study. Each sample contains approx. 200 mg base equivalent Omeprazole and Esomeprazole as salts and such samples were transferred in to a centrifuge tube containing 20 mL of appropriate medium. Centrifuge tubes containing these suspensions were shaken for approx. 30 minutes on a wrist action shaker and samples were initially filtered through Whatman filter paper and subsequently filtered through 0.45 micron PTFE cartridge filters. The samples were further diluted by pipetting 1.0 mL in to 100 mL volumetric flasks and made up to the volume with appropriate medium. The optical density values were measured using a suitable UV-Visible spectrophotometer at 275 nm wavelength.

For `COc1ccnc(C[S+]([O-])c2nc3ccc(OC(F)F)cc3[nH]2)c1OC` (stereo not shown) [Pantoprazole], the percent bioavailability [1] is listed as 77%.
In the case of `COCCCOc1ccnc(C[S+]([O-])c2nc3ccccc3[nH]2)c1C` (stereo not shown) [Rabeprazole], the percent bioavailability [1] is listed as 52%.
In the case of `Cc1c(OCC(F)(F)F)ccnc1C[S+]([O-])c1nc2ccccc2[nH]1` (stereo not shown) [Lansoprazole, 2-[[[3-methyl-4-(2,2,2-trifluroethoxy)-2-pyridyl]methyl]sulfinyl]benzimidazole], the “degradation half-life in aqueous solution” value ([2]; pH 5.0) is given as “approximately 0.5 hour”, the “degradation half-life in aqueous solution” value ([2]; pH 7.0) is given as “approximately 18 hours” and the percent bioavailability [1] is given as 80-85%.
For `COc1ccc2[n-]c([S@@+]([O-])Cc3ncc(C)c(OC)c3C)nc2c1.COc1ccc2[n-]c([S@@+]([O-])Cc3ncc(C)c(OC)c3C)nc2c1.O.O.[Mg+2]` [Esomeprazole Magnesium Dihydrate], the “Solubility: Active content equivalent to base in pH 6.8 buffer” value [3] was 1.17 mg/mL, the “fold increased solubility by the fluid bed process as compared to the active when tested alone” value (“fold increased solubility” for short) ([3]; purified water) was “approx. 1.6 fold” and the “Solubility: Active content equivalent to base in purified water” value ([3]; purified water) was 5020 µg/mL.
For `COc1ccc2[n-]c([S+]([O-])Cc3ncc(C)c(OC)c3C)nc2c1.COc1ccc2[n-]c([S+]([O-])Cc3ncc(C)c(OC)c3C)nc2c1.O.O.O.[Mg+2]` (stereo not shown) [Omeprazole Magnesium Trihydrate], the “fold increased solubility” value ([3]; pH 6.8 buffer (simulated intestinal fluid)) was 4 fold, the “Solubility: Active content equivalent to base in pH 6.8 buffer” value [3] was 0.31 mg/mL and the “fold increased solubility” value ([3]; purified water) was “approx. 10 fold”. For the same molecule, the “Solubility: Active content equivalent to base in purified water” value ([3]; purified water) was 260 µg/mL.
In the case of `COc1ccc2[nH]c([S+]([O-])Cc3ncc(C)c(OC)c3C)nc2c1` (stereo not shown) [omeprazole, 2-[2-(3,5-dimethyl-4-methoxy)-pyridylmethylsulfinyl]-(5-methoxy)-benzimidazole], the percent bioavailability [1] is listed as 30-40%.
